# Experimental data as given in patent US5164390A, “6-substituted purinyl piperazine derivatives” (Ortho Pharmaceutical Corporation, priority 1991, dated 1992).
# Like-named read-outs stand apart in the source and are kept apart here.
# Tested on: Adult mongrel dogs
# Experiment: Cardiotonic activity: hemodynamic and inotropic responses (MAP, HR, dP/dt, contractile force) in anesthetized dogs, iv infusion
# Assay type: in vivo, mongrel dog
# Details: Canis lupus familiaris, Table 2, 1.875 mpk iv
# Experimental: Adult mongrel dogs were anesthetized with sodium pentobarbital (45 mg/kg, i.p.) and artificially respired. Mean arterial pressure (MAP) was recorded from a cannulated femoral artery and drugs were infused into a cannulated femoral vein. The arterial pressure pulse was used to trigger a cardiotachometer for determination of heart rate (HR). Left ventricular pressure was measured with a Millar catheter and dP/dtmax was derived. A right thoracotomy was performed and myocardial contractile force (CF) was measured with a Walton Brodie strain gauge sutured to the right ventricle. The ventricular muscle was stretched to produce a baseline tension of 100 g. A standard dose of dopamine (10-15 ug/kg/min for 3 min) was administered to determine myocardial responsiveness to inotropic stimulation.
# Test compounds were solubilized in a small volume of DMF diluted to a final concentration of 10% in physiological saline. Alternatively, where possible, a soluble hydrochloride salt was prepared by addition of 0.1N HCl diluted in physiological saline. Vehicles were tested in appropriate volumes and found to exert less than a 5% effect on contractile force. For iv studies, compounds were administered by infusion pump (one drug per animal) at rates of 0.58-2.2 mL/min in three to four stepwise increasing doses. Each dose was infused over 5 min immediately after the effect of the previous dose peaked. MAP, HR, dP/dtmax and CF responses were continuously monitored on a Beckman or Gould recorder and expressed as a percent change from pre-drug control values vs. the cumulative dose of drug administered. For these studies, n represents the number of test animals used.
# Quantitation of the inotropic potency was obtained by calculation of the contractile force (CF) ED50. This was defined as the dose of compound that produced a 50% increase above baseline in myocardial contractile force. The value was obtained from three to four point dose-response curves using either graphical estimation (n<3) or linear regression analysis (n≥3). Numbers in parentheses are number of animals screened.
# [1] = read-out: CF (myocardial contractile force), percent change from pre-drug control
# [2] = read-out: HR (heart rate), percent change from pre-drug control
# [3] = read-out: MAP (mean arterial pressure), percent change from pre-drug control
# [4] = read-out: dP/dt (left ventricular dP/dtmax), percent change from pre-drug control
SMILES,change in vivo at 1.875 mg/kg [1],change in vivo at 1.875 mg/kg [2],change in vivo at 1.875 mg/kg [3],change in vivo at 1.875 mg/kg [4]
"CN(CC(O)CN1CCN(C(c2ccc(F)cc2)c2ccc(F)cc2)CC1)c1ncnc2[nH]cnc12 (stereo not drawn) [Example 28, 6-[3-[4-[Bis(4-fluorophenyl)methyl]piperazin-1-yl]-2-hydroxypropyl-N-methylamino]purine Hemihydrate]",95%,16%,9%,82%
"Cn1cnc2c(SCC(O)CN3CCN(C(c4ccc(F)cc4)c4ccc(F)cc4)CC3)ncnc21 (stereo not drawn) [Example 29, 9-Methyl-6-[1-[1-[bis(4-fluorophenyl)methyl]piperazin-4-yl]-2-hydroxy-3-propanylthio]purine Hemihydrate]",50%,-2%,-6%,11%
"Cc1nc(SCC(O)CN2CCN(C(c3ccc(F)cc3)c3ccc(F)cc3)CC2)c2nc[nH]c2n1 (stereo not drawn) [Example 30, 2-Methyl-6-[1-[1-[bis(4-fluorophenyl)methyl]piperazin-4-yl]-2-hydroxy-3-propanylthio]purine 3/4Hydrate]",23%,1%,1%,17%
